Literature values in patent US10806768B2, “Composition for promoting metallothionein production” (priority 2016, dated 2020).

CC(=O)N[C@@H](CS)C(=O)O [NAC, N-Acetyl-Cysteine]
oxidative glutathione disulfide (GSSG) level, NAC group (only at a trend level of significance, p=0.09): increased
CGI-I, NAC versus placebo groups (p>0.69): no statistically significant difference
glutathione (GSH) level in blood, NAC group (versus placebo, p<0.05): significantly higher
DNA strand break and oxidative damage, NAC versus placebo groups (week 12): no significant difference
GSH/GSSG ratio, NAC versus placebo groups (week 12): no significant difference
blood homocysteine levels, NAC versus placebo groups (week 12): no significant difference
